In patent US20260272878A1, “ADAR1 INHIBITORS AND USES THEREOF” (THE WISTAR INSTITUTE OF ANATOMY AND BIOLOGY, priority 2023, published 2026):
“Also recorded” adds a separate entry of the source.

Assays:
[1] = test system: HeLa cells; test: Dot blot analysis for RNA:DNA hybrids (R-loops); type: cell-based, human; details: 10 μM for ADAR1i-124
[2] = target: ADAR1p110-E912A (Homo sapiens, UniProt P55265, E912A); test: Biacore SPR binding to ADAR1p110-E912A mutant
From the text: FIGS. 5A-5D show Biacore SPR analysis for binding of ADAR1i to ADAR1p110. (FIG. 5A) SPR analysis for binding kinetics of 8 compounds to ADAR1p110-WT. ADAR1 inhibition positive (ADAR1i-13, ADAR1i-120, ADAR1i-124) and negative compounds. (FIG. 5B, FIG. 5C) […] of SPR analysis for binding of ADAR1i-13 and ADAR1i-124 to ADAR1p110-WT and ADAR1p110-E912A as well as negative control proteins, GAPDH and HuR, are shown. […] ADAR1-E912, equivalent of ADAR2 E396, is located in the catalytic center.
No complete 3-D structure of ADAR1 is currently available. […] The glutamate E912 and E396 in ADAR1 and ADAR2, respectively, plays an important proton transfer function during hydrolytic deamination reaction (42, 43).

[3] = target: T1, ADAR1p150 (Homo sapiens, UniProt P55265); test: In vitro editing assay, ADAR1p150; type: biochemical; details: for IC50: ADAR1p150 (not shown)
T1 sequence (P55265 1-1226): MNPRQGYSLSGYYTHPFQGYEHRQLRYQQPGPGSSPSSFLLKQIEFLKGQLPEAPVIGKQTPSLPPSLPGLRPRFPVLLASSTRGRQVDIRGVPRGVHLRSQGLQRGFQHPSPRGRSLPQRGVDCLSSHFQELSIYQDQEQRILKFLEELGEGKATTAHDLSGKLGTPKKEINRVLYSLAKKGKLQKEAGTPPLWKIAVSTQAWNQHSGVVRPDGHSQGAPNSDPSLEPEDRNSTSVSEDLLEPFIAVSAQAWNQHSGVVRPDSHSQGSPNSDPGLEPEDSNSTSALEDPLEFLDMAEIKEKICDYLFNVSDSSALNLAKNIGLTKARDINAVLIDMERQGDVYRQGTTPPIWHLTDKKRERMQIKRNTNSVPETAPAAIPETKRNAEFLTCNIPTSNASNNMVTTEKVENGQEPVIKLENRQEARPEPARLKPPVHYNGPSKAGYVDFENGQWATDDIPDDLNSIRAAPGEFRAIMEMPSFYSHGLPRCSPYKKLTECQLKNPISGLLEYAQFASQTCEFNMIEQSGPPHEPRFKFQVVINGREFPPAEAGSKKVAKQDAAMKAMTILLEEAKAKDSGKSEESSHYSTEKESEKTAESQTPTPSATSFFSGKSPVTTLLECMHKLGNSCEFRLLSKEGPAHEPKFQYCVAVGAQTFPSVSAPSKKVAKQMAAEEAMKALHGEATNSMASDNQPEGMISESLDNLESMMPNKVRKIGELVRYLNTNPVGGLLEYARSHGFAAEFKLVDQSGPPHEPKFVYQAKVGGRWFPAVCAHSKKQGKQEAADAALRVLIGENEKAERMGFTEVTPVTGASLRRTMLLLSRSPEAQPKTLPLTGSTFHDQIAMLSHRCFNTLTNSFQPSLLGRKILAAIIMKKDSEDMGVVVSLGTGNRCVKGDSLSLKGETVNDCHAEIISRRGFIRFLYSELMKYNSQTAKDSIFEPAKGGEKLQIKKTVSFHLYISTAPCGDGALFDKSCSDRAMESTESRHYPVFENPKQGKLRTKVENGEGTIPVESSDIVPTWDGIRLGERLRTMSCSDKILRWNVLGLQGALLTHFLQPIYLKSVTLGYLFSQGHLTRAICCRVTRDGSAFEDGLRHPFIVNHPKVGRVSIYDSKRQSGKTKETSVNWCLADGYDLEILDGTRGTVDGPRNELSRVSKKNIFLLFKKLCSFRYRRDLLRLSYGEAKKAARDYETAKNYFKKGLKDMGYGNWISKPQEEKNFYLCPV
Method: The in vitro editing reaction mixture, containing 5 nM of telomere RNA:RNA duplex substrates and 75 nM of HAT-ADAR1p110-WT, FLAG-ADAR1p110-WT, or HA-ADAR1p110-EAA protein, was incubated at 37° C. for 2 h in in vitro editing buffer I (20 mM HEPES-KOH PH 7.5, 100 mM NaCl, 0.01% NP-40, 5% glycerol, 1 mM DTT). For editing of RNA:DNA hybrid substrates, in vitro editing buffer II (20 mM HEPES-KOH PH 7.5, 20 mM NaCl, 0.01% NP-40, 5% glycerol, 1 mM DTT) was used. Edited RNA or DNA strands were purified using Dynabeads MyOne Streptavidin C1 (Thermo Fisher Scientific). To remove opposite RNA or DNA strands, rNase H (NEB) or TURBO dNase (Thermo Fisher Scientific) was used, respectively. For sequencing of edited substrates, reverse transcription-PCR was carried out for RNA strands, while PCR was carried out for DNA strands. RT reactions were carried out using SuperScript III Reverse Transcriptase (Thermo Fisher Scientific), and PCR reactions were performed using Platinum Taq DNA polymerase (Thermo Fisher Scientific). PCR products were sequenced using a specific sequencing primer, and the ratio of A and G peaks in the chromatograms were analyzed by CodonCode Aligner (CodonCode Corporation).
Seven additional analogs of ADAR1i-13 (FIG. 5A) were synthesized to determine structural characteristics required for ADAR1 editing inhibitory activity. […] In vitro editing IC50 values of ADAR1i-13, ADAR1i-120, and ADAR1i-124 (FIG. 5A) were similar, in the ~10-20 μM range, for both ADAR1p110 (FIG. 5A) and ADAR1p150 (not shown).

[4] = test system: IMR90 normal fibroblast cells; test: Cell killing / viability, IMR90; type: cell-based
Method: FIGS. 8A-8C show analysis of ADAR1i-124 effects in cancer cells. […] Viability was examined using the Apo Tox-Glo assay system. Control, 0.3% DMSO. Data: mean±SD (n=3). Significant differences identified by two-tailed Student's t-tests: *P<0.05, n.s., not significant. (FIG. 8B) Western blotting analysis of HeLa cells treated with ADAR1i-124 (10 μM).
FIGS. 9A-9C show dose-dependent killing of cancer cells and activation of IFN signaling. […] YUMM1.7 (FIG. 9B) and HGS2 cells (FIG. 9C) were treated with ADAR1i-124 at 10 μM (12 hrs). RNA samples were analyzed by qRT-PCR to monitor ISG expression levels. Data: mean±SD (n=3). Significant differences were identified by two-tailed Student's t-tests: ***P<0.001.
Dose-dependent selective killing of telomerase reactivated cancer cells was determined (FIG. 9A).

ADAR1p110-E912A, sequence (P55265 296-1226 E912A): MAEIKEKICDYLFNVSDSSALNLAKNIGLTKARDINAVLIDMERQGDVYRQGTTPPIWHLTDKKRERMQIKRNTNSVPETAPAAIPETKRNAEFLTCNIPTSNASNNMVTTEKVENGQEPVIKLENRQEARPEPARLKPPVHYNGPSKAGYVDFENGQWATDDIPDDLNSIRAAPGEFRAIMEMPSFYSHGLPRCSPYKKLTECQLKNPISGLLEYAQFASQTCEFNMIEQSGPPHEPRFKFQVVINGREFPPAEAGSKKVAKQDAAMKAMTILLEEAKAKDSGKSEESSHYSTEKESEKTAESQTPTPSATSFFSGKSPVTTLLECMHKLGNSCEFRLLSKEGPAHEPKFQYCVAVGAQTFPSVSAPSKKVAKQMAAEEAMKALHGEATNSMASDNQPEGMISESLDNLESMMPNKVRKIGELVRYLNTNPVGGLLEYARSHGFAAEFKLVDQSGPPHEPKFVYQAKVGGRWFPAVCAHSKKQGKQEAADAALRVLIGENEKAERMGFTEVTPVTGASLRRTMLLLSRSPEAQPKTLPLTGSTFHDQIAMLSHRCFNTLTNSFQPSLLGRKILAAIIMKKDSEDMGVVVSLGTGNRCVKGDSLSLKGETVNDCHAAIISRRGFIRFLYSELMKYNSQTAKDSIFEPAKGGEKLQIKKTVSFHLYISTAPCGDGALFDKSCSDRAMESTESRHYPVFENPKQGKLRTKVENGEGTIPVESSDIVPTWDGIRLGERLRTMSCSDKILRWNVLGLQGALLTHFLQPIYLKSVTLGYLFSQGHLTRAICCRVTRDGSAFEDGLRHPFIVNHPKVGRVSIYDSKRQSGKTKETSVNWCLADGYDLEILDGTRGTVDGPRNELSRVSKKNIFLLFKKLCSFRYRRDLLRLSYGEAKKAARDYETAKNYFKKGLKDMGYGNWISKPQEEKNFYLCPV

SMILES	Formation of R-loops (RNA:DNA hybrids) [1]	Binding to ADAR1p110-E912A mutant [2]	IC50 [3]	Killing of IMR90 cells [4]	Inhibition of ADAR1p150 ([3]; result in words)
N#Cc1ccc(NC(=O)c2sc3ccccc3c2Cl)cc1 [ADAR1i-13, 3-chloro-N-(4-cyanophenyl)-1-benzothiophene-2-carboxamide]	increased formation of R-loops	did not bind	10 to 20 µM	not ALT U2OS cells or IMR90 normal fibroblast cells	–
N#Cc1ccccc1NC(=O)c1sc2ccccc2c1Cl [ADAR1i-120]	increased formation of R-loops	–	10 to 20 µM	not ALT U2OS cells or IMR90 normal fibroblast cells	–
N#Cc1ccc(NC(=O)c2c(Cl)c3ccccc3n2CO)cc1 [ADAR1i-124]	increased formation of R-loops; also recorded: RNA:DNA hybrids induced	a binding kinetics different from that with ADAR1p110-WT	10 to 20 µM	not ALT U2OS cells or IMR90 normal fibroblast cells; also recorded: unaffected	inhibited both ADAR1p150 and ADAR1p-110
